Measured values taken from patent US20050281749A1, “Sprayable compositions comprising a combination of pharmaceutical actives and an oily phase” (GALDERMA S.A., priority 2004, published 2005).

How the values were obtained:
[1] = Stability of calcitriol in Miglyol 812 (caprylic/capric triglycerides), HPLC assay; type: physicochemical; details: calcitriol 30 ppm in Miglyol 812 with 0.4% BHT
Text: (§1) a) Stability of calcitriol in Miglyol 812 (caprylic/capric triglycerides): Solution of calcitriol 30 ppm in qs 100% of Miglyol 812 in the presence of 0.4% of BHT. HPLC assay technique against reference substance. At the starting time (TO) the composition is considered to contain 100% of calcitriol. Concentration of calcitriol measured in % relative to TO: […]

[2] = Stability of calcitriol in Cetiol SN (cetearyl isononanoate), HPLC assay; type: physicochemical; details: calcitriol 30 ppm in Cetiol SN with 0.4% BHT
Text: as §1, with “b)” for “a)”, “Cetiol SN (cetearyl isononanoate):” for “Miglyol 812 (caprylic/capric triglycerides):”, “Cetiol SN (cetearyl isononanoate)” for “Miglyol 812”

- Concentration of calcitriol measured in % relative to TO ([1]; +4° C., T 2 weeks): 98.3%
- Concentration of calcitriol measured in % relative to TO ([1]; +4° C., T 4 weeks): 105.2%
- Concentration of calcitriol measured in % relative to TO ([1]; +40° C., T 2 weeks): 91%
- Concentration of calcitriol measured in % relative to TO ([1]; +40° C., T 4 weeks): 93.8%
- Concentration of calcitriol measured in % relative to TO ([1]; AT, T 2 weeks): 95.1%
- Concentration of calcitriol measured in % relative to TO ([1]; AT, T 4 weeks): 98.0%
- Concentration of calcitriol measured in % relative to TO ([2]; +4° C., T 2 weeks): 98.6%
- Concentration of calcitriol measured in % relative to TO ([2]; +4° C., T 4 weeks): 98.1%
- Concentration of calcitriol measured in % relative to TO ([2]; +40° C., T 2 weeks): 99.0%
- Concentration of calcitriol measured in % relative to TO ([2]; +40° C., T 4 weeks): 98.9%
- Concentration of calcitriol measured in % relative to TO ([2]; AT, T 2 weeks): 98.7%
- Concentration of calcitriol measured in % relative to TO ([2]; AT, T 4 weeks): 98.4%
SMILES: C=C1/C(=C\C=C2/CCC[C@]3(C)[C@@H]([C@H](C)CCCC(C)(C)O)CC[C@@H]23)C[C@@H](O)C[C@@H]1O [calcitriol]
